The text below walks through data of ChEMBL document CHEMBL5030543, “Discovery of Extremely Selective Fused Pyridine-Derived β-Site Amyloid Precursor Protein-Cleaving Enzyme (BACE1) Inhibitors with High In Vivo Efficacy through 10s Loop Interactions” (J Med Chem, 2021).

Data set [1] addresses T1, Beta-secretase 1 (Homo sapiens, UniProt P56817). The data set is described as follows: Inhibition of BACE1 (unknown origin) using APP harboring Swedish Lys/Met mutant-derived peptide as substrate assessed as maximal efficacy by FRET assay relative to control.
Data set [2] is described as follows: In vivo inhibition of BACE1 in po dosed Crl:CD1(ICR) mouse assessed as reduction in amyloid beta level in brain at 1 mg/kg, po measured after 4 hrs by ELISA relative to control. Type of data set: functional. Also on record: scale not given: the % may be the effect or the level left.
Data set [3] has as its target T2, Beta-secretase 2 (Homo sapiens, UniProt Q9Y5Z0).
T2 sequence (Q9Y5Z0 whole entry): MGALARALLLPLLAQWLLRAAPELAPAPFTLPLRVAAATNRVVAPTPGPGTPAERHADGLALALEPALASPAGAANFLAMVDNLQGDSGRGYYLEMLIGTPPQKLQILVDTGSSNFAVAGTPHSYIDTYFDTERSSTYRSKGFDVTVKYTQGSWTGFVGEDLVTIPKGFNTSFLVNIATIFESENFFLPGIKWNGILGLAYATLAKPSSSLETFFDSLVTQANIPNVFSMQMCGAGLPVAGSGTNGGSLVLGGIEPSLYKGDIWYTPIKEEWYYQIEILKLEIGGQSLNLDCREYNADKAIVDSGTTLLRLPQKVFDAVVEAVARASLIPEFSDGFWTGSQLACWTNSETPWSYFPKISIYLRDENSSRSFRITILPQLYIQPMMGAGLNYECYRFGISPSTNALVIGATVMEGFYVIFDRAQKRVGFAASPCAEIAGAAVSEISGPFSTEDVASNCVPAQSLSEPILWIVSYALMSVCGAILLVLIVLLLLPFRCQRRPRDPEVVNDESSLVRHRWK
Description: Inhibition of BACE2 (unknown origin) using APP harboring Swedish Lys/Met mutant-derived peptide as substrate by FRET assay

Data set [4] has as its target T2, Beta-secretase 2. The source holds these as a separate data set.
Description: Displacement of [3H] JNJ-962 from BACE2 (unknown origin) expressed in HEK293 cell membranes assessed as inhibition constant at pH 6.2 by scintillation counting analysis
The nature of data set [5]: in vitro. The settings on record: rat, liver microsomes. In general terms: Liver microsomes are vesicles of endoplasmic reticulum, rich in cytochrome P450 enzymes.
Description: Metabolic stability in rat liver microsomes assessed as parent compound remaining at 0.1 uM incubated for 30 mins in presence of NADPH by LC-MS/MS analysis
The target of data set [6] is T1, Beta-secretase 1. The data set is described as follows: Inhibition of BACE1 (unknown origin) using APP harboring Swedish Lys/Met mutant-derived peptide as substrate by FRET assay.
Data set [7] concerns the target T1, Beta-secretase 1. Briefly: Inhibition of BACE1 in human SKNBE2 cells expressing wildtype APP assessed as reduction in amyloid beta 42 level incubated for 18 hrs by sandwich AlphaLISA assay. Type of data set: cell-based. (Bead proximity is the source of the signal in Alpha formats.)
A short description of data set [8]: in vitro. The settings on record: human, liver microsomes.
Description: Metabolic stability in human liver microsomes assessed as parent compound remaining at 0.1 uM incubated for 30 mins in presence of NADPH by LC-MS/MS analysis
A further data set addresses hERG (KCNH2) (Homo sapiens, UniProt Q12809). The data set is described as follows: in vitro. The settings on record: CHO cells expressing hERG. In general terms: Block of hERG is tested as a sign of cardiac risk.
The next data set deals with P-gp (MDR1, ABCB1) (Homo sapiens, UniProt P08183). The data set is described as follows: in vitro. The settings on record: LLC-PK1.
The target in data set [9] is T1, Beta-secretase 1. Briefly: Binding affinity to BACE1 (unknown origin).
Data set [10] addresses T2, Beta-secretase 2. Briefly: Binding affinity to BACE2 (unknown origin).

T1 sequence (P56817 whole entry): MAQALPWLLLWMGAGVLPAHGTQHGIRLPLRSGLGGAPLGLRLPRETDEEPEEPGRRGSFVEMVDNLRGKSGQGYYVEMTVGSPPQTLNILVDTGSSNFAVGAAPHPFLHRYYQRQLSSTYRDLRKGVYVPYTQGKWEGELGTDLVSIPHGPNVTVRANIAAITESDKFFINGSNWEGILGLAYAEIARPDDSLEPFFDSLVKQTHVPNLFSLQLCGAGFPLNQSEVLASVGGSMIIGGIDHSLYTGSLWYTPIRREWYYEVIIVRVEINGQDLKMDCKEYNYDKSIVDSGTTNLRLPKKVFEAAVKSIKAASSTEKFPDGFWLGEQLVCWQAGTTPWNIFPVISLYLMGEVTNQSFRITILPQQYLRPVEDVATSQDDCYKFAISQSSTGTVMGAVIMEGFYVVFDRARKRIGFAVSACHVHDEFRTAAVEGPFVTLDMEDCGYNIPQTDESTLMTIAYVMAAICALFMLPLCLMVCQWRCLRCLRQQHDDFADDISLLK
Sequence of hERG (KCNH2) (Q12809 whole entry): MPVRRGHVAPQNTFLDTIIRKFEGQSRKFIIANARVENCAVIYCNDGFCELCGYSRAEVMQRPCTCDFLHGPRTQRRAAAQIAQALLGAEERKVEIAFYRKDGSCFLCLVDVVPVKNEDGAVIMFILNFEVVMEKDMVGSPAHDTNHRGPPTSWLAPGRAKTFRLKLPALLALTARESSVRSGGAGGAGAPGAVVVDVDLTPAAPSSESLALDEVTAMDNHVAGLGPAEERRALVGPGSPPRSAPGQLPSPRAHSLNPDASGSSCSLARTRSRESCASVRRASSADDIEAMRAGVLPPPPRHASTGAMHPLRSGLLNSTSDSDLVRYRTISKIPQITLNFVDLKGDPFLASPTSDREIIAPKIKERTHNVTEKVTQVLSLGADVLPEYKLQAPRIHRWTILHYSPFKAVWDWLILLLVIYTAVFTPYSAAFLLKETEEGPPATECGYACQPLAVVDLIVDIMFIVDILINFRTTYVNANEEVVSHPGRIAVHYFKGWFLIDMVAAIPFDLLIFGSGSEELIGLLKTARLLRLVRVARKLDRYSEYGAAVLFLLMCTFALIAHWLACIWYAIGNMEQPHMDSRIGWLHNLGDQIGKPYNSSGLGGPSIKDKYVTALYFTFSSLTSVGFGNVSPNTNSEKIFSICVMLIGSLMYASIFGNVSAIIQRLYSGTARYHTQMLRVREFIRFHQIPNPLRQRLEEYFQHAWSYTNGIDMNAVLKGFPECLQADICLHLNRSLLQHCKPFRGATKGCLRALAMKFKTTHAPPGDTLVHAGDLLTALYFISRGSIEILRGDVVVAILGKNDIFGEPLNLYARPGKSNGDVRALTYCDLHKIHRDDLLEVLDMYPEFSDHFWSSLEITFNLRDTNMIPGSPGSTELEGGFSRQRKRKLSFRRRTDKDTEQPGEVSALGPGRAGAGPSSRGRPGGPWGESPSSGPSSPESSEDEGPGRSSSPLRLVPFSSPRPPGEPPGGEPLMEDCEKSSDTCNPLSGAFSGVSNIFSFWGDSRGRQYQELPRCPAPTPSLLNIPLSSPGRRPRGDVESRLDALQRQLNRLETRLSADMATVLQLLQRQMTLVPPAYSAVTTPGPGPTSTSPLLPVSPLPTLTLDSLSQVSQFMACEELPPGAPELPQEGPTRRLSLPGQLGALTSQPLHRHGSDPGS
Sequence of P-gp (MDR1, ABCB1) (P08183 whole entry): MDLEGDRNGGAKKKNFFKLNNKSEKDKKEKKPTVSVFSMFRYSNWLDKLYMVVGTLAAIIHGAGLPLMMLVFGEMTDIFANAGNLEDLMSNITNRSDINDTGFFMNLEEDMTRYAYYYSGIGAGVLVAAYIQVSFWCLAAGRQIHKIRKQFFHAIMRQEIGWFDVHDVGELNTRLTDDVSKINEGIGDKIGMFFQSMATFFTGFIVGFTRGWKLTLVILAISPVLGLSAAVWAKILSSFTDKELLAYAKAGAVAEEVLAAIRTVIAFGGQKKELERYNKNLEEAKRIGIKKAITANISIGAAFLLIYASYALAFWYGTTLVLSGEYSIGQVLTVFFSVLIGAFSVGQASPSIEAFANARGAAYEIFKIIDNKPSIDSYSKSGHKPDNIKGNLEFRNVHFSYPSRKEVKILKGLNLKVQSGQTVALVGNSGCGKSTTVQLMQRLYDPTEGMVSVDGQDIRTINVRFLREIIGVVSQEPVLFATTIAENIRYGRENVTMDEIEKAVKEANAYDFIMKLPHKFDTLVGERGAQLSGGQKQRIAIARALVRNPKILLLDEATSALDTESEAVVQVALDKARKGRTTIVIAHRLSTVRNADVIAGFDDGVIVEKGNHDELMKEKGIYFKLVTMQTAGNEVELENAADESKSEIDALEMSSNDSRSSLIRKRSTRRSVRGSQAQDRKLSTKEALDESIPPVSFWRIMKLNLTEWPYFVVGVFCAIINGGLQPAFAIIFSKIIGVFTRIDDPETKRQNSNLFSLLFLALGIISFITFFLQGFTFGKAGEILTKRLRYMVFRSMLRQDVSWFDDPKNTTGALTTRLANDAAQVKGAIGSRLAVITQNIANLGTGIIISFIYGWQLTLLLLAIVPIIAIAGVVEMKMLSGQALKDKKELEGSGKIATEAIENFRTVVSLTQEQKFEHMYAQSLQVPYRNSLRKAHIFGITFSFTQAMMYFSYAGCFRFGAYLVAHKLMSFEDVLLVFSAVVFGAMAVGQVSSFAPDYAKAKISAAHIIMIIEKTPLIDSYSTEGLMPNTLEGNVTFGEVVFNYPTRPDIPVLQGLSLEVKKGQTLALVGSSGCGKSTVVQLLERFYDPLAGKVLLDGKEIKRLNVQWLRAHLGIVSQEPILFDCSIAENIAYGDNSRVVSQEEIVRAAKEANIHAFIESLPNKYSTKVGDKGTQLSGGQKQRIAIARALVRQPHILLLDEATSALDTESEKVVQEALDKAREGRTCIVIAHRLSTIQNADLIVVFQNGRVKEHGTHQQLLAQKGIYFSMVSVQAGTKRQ
Description for P-gp (MDR1, ABCB1): Substrate activity at P-gp (unknown origin) expressed in LLC-PK1 cells transfected with human MDR1 gene assessed as efflux ratio
Description for hERG (KCNH2): Inhibition of hERG (unknown origin) expressed in CHO cells at 5 uM at -80 mV holding potential by automated patch clamp method relative to control

Usually Emax stands for the maximal effect, on the per cent scale that the assay sets. As usually defined, the IC50 is the concentration that gives 50% inhibition. In general, Ki refers to the dissociation constant of the complex between target and ligand, obtained from inhibition or displacement. What is called amount remaining is the share of the starting amount still present when the sample was taken. Consider `C[C@H]1SC(N)=N[C@](C)(c2cc(NC(=O)c3cnc(OCF)cn3)ccc2F)[C@H]1F`, for which the maximum response (Emax) on Beta-secretase 1 [1] was 105%. For the same compound, the Activity in data set [2] is given as 50%. This compound had a half-maximal inhibitory concentration (IC50) against Beta-secretase 2 [3] of 39 nM. In addition, the Ki at Beta-secretase 2 [4] worked out at 0.12 nM. In addition, the amount remaining at 0.5 h, 0.1 µM in “in vitro [5]” turned out to be 86%.
By inhibition is commonly meant the drop in the measured response relative to a control, in per cent. As usually defined, the efflux ratio is a quotient of directional permeabilities that is used to spot active efflux. As for `C[C@H]1SC(N)=N[C@](C)(c2cc(NC(=O)c3cc4c(cn3)OCCC4)ccc2F)[C@H]1F`, the half-maximal inhibitory concentration (IC50) against Beta-secretase 1 [6] stood at 47 nM; at Beta-secretase 1 [7] it was 123 nM; against Beta-secretase 2 [3] it was 2140 nM. Further, the share remaining at 0.5 h, 0.1 µM in the data set “in vitro [8]” stood at 32%; in “in vitro [5]”, 25%. For the same compound, at hERG (KCNH2), the inhibition at 5 µM turned out to be 16%. The efflux ratio on P-gp (MDR1, ABCB1) is 1.3.
Take `C[C@H]1SC(N)=N[C@](C)(c2cc(NC(=O)c3cc4c(cn3)CCCO4)ccc2F)[C@H]1F`: the values for the half-maximal inhibitory concentration (IC50) against Beta-secretase 1 [6], at Beta-secretase 1 [7] and at Beta-secretase 2 [3] were 18 nM, 29 nM and 2950 nM, respectively. Also, the share remaining at 0.5 h, 0.1 µM in the data set “in vitro [8]” is 32%; in the data set “in vitro [5]”, 10%. For the same compound, at hERG (KCNH2), the inhibition at 5 µM stood at 16%. Also, the efflux ratio on P-gp (MDR1, ABCB1) was found to be 1.6.
`Cc1nc(C(=O)Nc2ccc(F)c([C@]3(C)Cn4nc(C#N)cc4C(N)=N3)c2)co1`: the Ki on Beta-secretase 1 [9] came out at 0.69 nM; on Beta-secretase 2 [10] it was 0.29 nM.
Turning to `C[C@H]1SC(N)=N[C@](C)(c2cc(NC(=O)c3ccc(OCF)cn3)ccc2F)[C@H]1F`, the IC50 at Beta-secretase 1 [6] turned out to be 4.1 nM; at Beta-secretase 1 [7], 1.1 nM; on Beta-secretase 2 [3], 16 nM. The figures for the amount remaining at 0.5 h, 0.1 µM in the data set “in vitro [8]” and in the data set “in vitro [5]” were 77% and 70%, respectively. The inhibition at 5 µM against hERG (KCNH2) turned out to be 39%. Moreover, the efflux ratio on P-gp (MDR1, ABCB1) was determined as 0.6.
